Laboratory results from ChEMBL document CHEMBL4373743, “Selective apoptosis-inducing activity of synthetic hydrocarbon-stapled SOS1 helix with d-amino acids in H358 cancer cells expressing KRASG12C” (Eur J Med Chem, 2020).
Active and inactive are the calls of the source. The calls are words filed in the database; no cut-off is given here. Bridge positions count the residues as written; N and C are the ends. Square brackets hold non-standard residues; d marks the D form. Peptide text beside a SMILES is read from it. S5 = C=CCCC[C@](C)(N)C(=O)O

Tests used:
GTPase KRas = GTPase KRas (Homo sapiens, UniProt P01116, G12C); experiment: Binding affinity to biotinylated N-terminal His6-tagged recombinant KRAS G12C mutant (unknown origin) by BLI method
GTPase KRas, sequence (P01116 whole entry G12C): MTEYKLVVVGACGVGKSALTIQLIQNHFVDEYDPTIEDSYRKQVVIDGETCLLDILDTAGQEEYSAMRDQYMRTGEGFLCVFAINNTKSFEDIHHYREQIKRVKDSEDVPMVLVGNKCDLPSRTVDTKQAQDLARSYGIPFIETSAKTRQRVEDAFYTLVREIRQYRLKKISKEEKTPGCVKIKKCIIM

[1] = tested on: GTPase KRas (Homo sapiens), P01116 [G12C]; experiment: Binding affinity to biotinylated N-terminal His6-tagged recombinant KRAS G12C mutant (unknown origin) assessed as association constant by BLI method
GTPase KRas (Homo sapiens), P01116 [G12C], sequence (P01116 whole entry G12C): as above

[2] = tested on: GTPase KRas (Homo sapiens), P01116 [G12C]; experiment: Binding affinity to biotinylated N-terminal His6-tagged recombinant KRAS G12C mutant (unknown origin) assessed as dissociation constant by BLI method
A549 = experiment: Antiproliferative activity against human A549 cells harboring KRAS G12S mutant at 0.37 to 10 uM incubated for 24 hrs by MTT assay; assay type: functional, cell-based
[3] = tested on: GTPase KRas (Homo sapiens), P01116 [G12C]; experiment: Inhibition of mant-GDP bound N-terminal His6-tagged recombinant KRAS G12C mutant (unknown origin) by fluorescence based assay
NCI-H358 = experiment: Antiproliferative activity against human NCI-H358 cells harboring KRAS G12C mutant incubated for 24 hrs by MTT assay; assay type: functional, cell-based

Row | Kd (GTPase KRas) | Ka [1] | Kdiss [2] | inhibition [3] | SMILES | Activity (A549) | Activity (NCI-H358)
1 | 8.81 µM | 4.62 ×10³ /M.s | 4.07 ×10⁻² /s |  | CC[C@H](C)[C@H](NC(=O)CNC(=O)[C@H](Cc1ccccc1)NC(=O)[C@H](Cc1ccccc1)NC(=O)[C@H](CCCNC(=N)N)NC(=O)[C@H](CCCNC(=N)N)NC(C)=O)C(=O)N[C@@]1(C)CCC/C=C\CCC[C@@](C)(C(=O)N[C@@H](CC(C)C)C(=O)N[C@@H](CCCCN)C(=O)N[C@H](C(=O)N[C@@H](CCC(=O)O)C(=O)N[C@@H](CCC(=O)O)C(=O)NCC(=O)N[C@@H](CC(N)=O)C(=O)O)[C@@H](C)O)NC(=O)[C@H](CC(N)=O)NC(=O)[C@H](CC(=O)O)NC(=O)[C@H]([C@@H](C)O)NC(=O)[C@H](CC(C)C)NC1=O (Ac-RRFFGI[S5]LTDN[S5]LKTEEGN-OH; staple (Z) 7-12) |  | 
2 | 3.2 µM | 3.73 ×10³ /M.s | 1.19 ×10⁻² /s |  | CC[C@H](C)[C@H](NC(=O)CNC(=O)[C@H](Cc1ccccc1)NC(=O)[C@H](Cc1ccccc1)NC(=O)[C@H](CCCNC(=N)N)NC(=O)[C@H](CCCNC(=N)N)NC(C)=O)C(=O)N[C@@]1(C)CCC/C=C\CCC[C@@](C)(C(=O)N[C@@H](CC(C)C)C(=O)N[C@@H](CCCCN)C(=O)N[C@H](C(=O)N[C@@H](CCC(=O)O)C(=O)N[C@@H](CCC(=O)O)C(=O)NCC(=O)N[C@@H](CC(N)=O)C(=O)O)[C@@H](C)O)NC(=O)[C@H](CC(N)=O)NC(=O)[C@H]([C@@H](C)O)NC(=O)[C@H](CC(=O)O)NC(=O)[C@H](CC(C)C)NC1=O (Ac-RRFFGI[S5]LDTN[S5]LKTEEGN-OH; staple (Z) 7-12) |  | 
3 | 26.1 µM | 6.65 ×10³ /M.s | 1.73 ×10⁻¹ /s |  | CC[C@H](C)[C@H](NC(=O)CNC(=O)[C@H](Cc1ccccc1)NC(=O)[C@H](Cc1ccccc1)NC(=O)[C@H](CCCNC(=N)N)NC(=O)[C@H](CCCNC(=N)N)NC(C)=O)C(=O)N[C@@]1(C)CCC/C=C\CCC[C@@](C)(C(=O)N[C@@H](CC(C)C)C(=O)N[C@@H](CCCCN)C(=O)N[C@H](C(=O)N[C@@H](CCC(=O)O)C(=O)N[C@@H](CCC(=O)O)C(=O)NCC(=O)N[C@@H](CC(N)=O)C(=O)O)[C@@H](C)O)NC(=O)[C@H](CC(N)=O)NC(=O)[C@H]([C@@H](C)O)NC(=O)[C@H](CC(C)C)NC(=O)[C@H](CC(=O)O)NC1=O (Ac-RRFFGI[S5]DLTN[S5]LKTEEGN-OH; staple (Z) 7-12) |  | 
4 | 47.8 µM | 2.44 ×10³ /M.s | 1.17 ×10⁻¹ /s | Dose-dependent effect | CC[C@H](C)[C@H](NC(=O)CNC(=O)[C@H](Cc1ccccc1)NC(=O)[C@H](Cc1ccccc1)NC(=O)[C@H](CCCNC(=N)N)NC(=O)[C@H](CCCNC(=N)N)NC(C)=O)C(=O)N[C@@]1(C)CCC/C=C\CCC[C@@](C)(C(=O)N[C@@H](CC(C)C)C(=O)N[C@@H](CCCCN)C(=O)N[C@H](C(=O)N[C@@H](CCC(=O)O)C(=O)N[C@@H](CCC(=O)O)C(=O)NCC(=O)N[C@@H](CC(N)=O)C(=O)O)[C@@H](C)O)NC(=O)[C@H](CC(N)=O)NC(=O)[C@H]([C@@H](C)O)NC(=O)[C@H](CC(C)C)NC1=O | inactive | Dose-dependent effect
